Common to all, as to experiment: NCI tumour cell line growth inhibition, 48 h
For test [1], the system named is 786-0 renal.
Test [2] concerns HCC-2998 colon.
The test system of test [3] is IGROV1 ovarian.
For test [4], the system named is K-562 leukemia.
Test [5] concerns OVCAR-4 ovarian.
Test [6] deals with SF-539 CNS.
Test [7] deals with SK-OV-3 ovarian.
Test [8] deals with SN12C renal.
The test system of test [9] is SNB-19 CNS.
The subject of test [10] is SNB-75 CNS.

Values joined by “and” are separate entries in the source; they are usually repeats but may differ in a detail not shown here. Identical values can stand only once.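 Method: 48-hour compound exposure of cells in 96-well plates, five concentrations, linear interpolation of endpoints. GI50 marks 50% less growth. Definition used: TGI = concentration required for complete inhibition of growth.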

With `CNCCOC(=O)/C=C1\CC[C@H]2[C@@H]([C@@H](O)C(=O)[C@@H]3[C@]2(C)CC[C@H](O)[C@]3(C)C(=O)OC)[C@H]1C`, the GI50 was 0.226 µM in test [1]; 1.35 µM in test [2]; 0.438 µM in test [3]; 0.412 µM in test [4]; 0.222 µM in test [5]; 0.267 µM in test [6]. For the same molecule, the GI50 in test [7] was 0.392 µM; in test [8], 0.327 µM; in [9] it was 0.668 µM; in test [10], 0.396 µM. For the same molecule, the TGI in test [1] came to 0.681 µM; in [2] it was 3.63 µM; in [3], 2.23 µM; in test [4] it was 2.37 µM; in test [5], 0.484 µM; in [6], 0.701 µM. For the same molecule, the TGI in [7] was 1.36 µM; in [8], 1.64 µM; in test [9], 1.99 µM; in test [10], 1.74 µM.

As for `CC12CCC(=O)C[C@H]1CCC(OC=O)C2Br` (stereo partly drawn), the TGI in test [1], in test [2], in test [3], in test [4], in [5] and in test [6] was more than 100 µM in each case. The TGI in test [7], in test [8], in [9] and in [10] was more than 100 µM each time.

For `N#Cc1nn(-c2cc(=O)[nH]c3ccc(Cl)cc23)c(N)c1C#N`, the GI50 in test [1] is more than 100 µM; in test [2] it was more than 100 µM; in test [3], more than 100 µM; in test [5], 8.63 µM; in test [6], more than 100 µM; in test [7], more than 100 µM. Further, the GI50 in [8], in test [9] and in test [10] was more than 100 µM each time. The TGI in test [1], in test [2], in test [3], in [5], in [6] and in test [7] was more than 100 µM each time. Moreover, the TGI in test [8], in [9] and in test [10] was more than 100 µM each time.

As for `CCC[CH2][Sn]([CH2]CCC)([O]C(=O)c1ccc(OC)c(OC)c1OC)[O][Sn]([CH2]CCC)([CH2]CCC)[O]C(=O)c1ccc(OC)c(OC)c1OC`, the GI50 in test [1] is 0.176 µM; in [2] it was 0.341 µM; in test [3], 0.891 µM; in [4], 0.0416 µM; in [5], 0.618 µM; in [6], 0.36 µM. Besides, the GI50 is 1.24 µM in test [7], 0.443 µM in test [8], 0.285 µM in test [9] and 0.177 µM in test [10]. Also, the TGI in test [1] was 0.456 µM; in test [2], 1.5 µM; in test [3], 2.47 µM; in test [4] it was 1.86 µM; in test [5] it was 1.87 µM; in test [6], 0.94 µM. Also, the TGI in [7] was 2.59 µM; in [8] it was 1.58 µM; in test [9], 0.635 µM; in [10] it was 0.744 µM.

Consider `COC(=O)c1ccc2c(c1)C(=O)c1c-2n(CCCN=[N+]=[N-])c(=O)c2cc(OC)c(OC)cc12`, for which the GI50 in [1], in test [2], in [3], in test [4], in test [5] and in test [6] was more than 100 µM in each case. Also, the GI50 in test [7] was 20.8 µM; in test [8], more than 100 µM; in [9] it was more than 100 µM; in [10] it was 8.24 µM. Moreover, the TGI in [1], in [2], in test [3], in [4], in test [5] and in test [6] was more than 100 µM each time. In addition, the TGI in [7], in [8], in [9] and in test [10] was more than 100 µM each time.

For the molecule `O=c1c(F)cn(Cc2ccc(C34CC5CC(CC(C5)C3)C4)c(O)c2)c(=O)n1Cc1ccc(C23CC4CC(CC(C4)C2)C3)c(O)c1`, the GI50 is 11.8 µM in [1]; 17.8 µM in test [2]; 5.29 µM in test [4]; 14.8 µM in test [5]; 11.5 µM in test [6]; 17.9 µM in test [7]. Moreover, the GI50 in test [8] was 10.5 µM; in [9], 27.5 µM; in test [10], 15.1 µM. Moreover, the TGI in test [1] was 28.3 µM; in [2], 33.2 µM; in test [4] it was more than 100 µM; in [5], 30.8 µM; in [6], 24.4 µM; in test [7], 33.1 µM. Also, the TGI in test [8] stood at 22.3 µM; in test [9], 57.1 µM; in [10], 30 µM.

`CSc1nc(SC)c2c(C#N)[nH]nc2n1`: the TGI in test [1], in [2], in test [3], in test [4], in [5] and in test [6] was more than 100 µM in each case. Further, the TGI in [7], in test [8], in test [9] and in [10] was more than 100 µM in each case.

Turning to `COc1cc(Cl)cc(-c2nn(-c3cccc(NC(=O)c4ccc(N5CCOCC5)c(C(F)(F)F)c4)c3)cc2-c2ccncc2)c1`, the GI50 in test [1] was 3.23 µM; in test [2] it was 6.06 µM; in test [3], more than 100 µM; in [4], 3.1 µM; in [5], 39.7 µM; in test [6] it was 3.74 µM. The GI50 in test [7] was more than 100 µM; in test [8] it was more than 100 µM; in test [9] it was more than 100 µM; in test [10], 2.08 µM. Moreover, the TGI is 29.8 µM in test [1]; 74.7 µM in [2]; more than 100 µM in test [3]; more than 100 µM in test [4]; more than 100 µM in test [5]; more than 100 µM in test [6]. The TGI in test [7], in [8], in test [9] and in [10] was more than 100 µM in each case.

`CC(C)(/C=C(\C#N)C(=O)N1CCC[C@@H](n2nc(-c3ccc(Oc4ccccc4)cc3F)c3c(N)ncnc32)C1)N1CCN(C2COC2)CC1`: the GI50 in test [1] was 4.12 µM; in test [2], 15.4 µM; in [3] it was 4.3 µM; in test [4], 7.49 µM; in test [5], 5.69 µM; in test [6] it was 5.95 µM. Moreover, the GI50 in test [8] is 4.3 µM; in [9], 8.09 µM; in test [10] it was 5.98 µM. For the same molecule, the TGI in test [1] is 18.9 µM; in test [2], 31.5 µM; in test [3], 16.6 µM; in test [4] it was more than 100 µM; in test [5], 20.4 µM; in test [6], 19 µM. For the same molecule, the TGI is 16.2 µM in [8], 20.6 µM in [9] and 20.7 µM in [10].

`COc1ccc(OCC(=O)O)c2c1CCCC2=O`: the TGI in test [1], in [2], in [3], in test [4], in test [5] and in test [6] was more than 100 µM each time. Further, the TGI in [7], in test [8], in [9] and in test [10] was more than 100 µM throughout.

Regarding `CC(C)(C)c1cc(C(P(=O)(O)O)P(=O)(O)O)cc(C(C)(C)C)c1O`, the TGI in test [1], in [2], in test [3], in test [4], in [5] and in test [6] was more than 100 µM in each case. Moreover, the TGI in [7], in test [9] and in test [10] was more than 100 µM throughout.

`Cc1c(N(C)C)ccc2c(=O)c3cccc(CC(=O)O)c3oc12`: the TGI in test [1], in [2], in test [3], in [4], in test [5] and in test [6] was more than 100 µM in each case. The TGI is more than 100 µM in test [7], more than 100 µM in test [8], more than 69 µM in test [9] and more than 100 µM in test [10].

For `CN(C)CC[C@H](CSc1ccccc1)Nc1ccc(S(=O)(=O)NC(=O)c2ccc(N3CCN(Cc4ccccc4-c4ccc(Cl)cc4)CC3)cc2)cc1[N+](=O)[O-]`, the GI50 was 3.6 µM in test [1]; 0.457 µM in test [2]; 3.05 µM in test [3]; 5.03 µM in test [4]; 3.04 µM in [5]; 36.5 µM in test [6]. For the same molecule, the GI50 in test [7] was 4.58 µM; in [8] it was 3.56 µM; in test [9], 4.68 µM; in test [10], 6.09 µM. Moreover, the TGI in test [1] is 15.1 µM; in test [2], 2.01 µM; in [3], more than 51.6 µM; in test [4], more than 100 µM; in [5], more than 29.6 µM; in test [6], more than 100 µM. In addition, the TGI is 16.9 µM in test [7], more than 56.7 µM in [8], more than 100 µM in test [9] and more than 100 µM in test [10].

As for `CCN(CC)CCNc1nc(N)c(C#N)c(C#N)c1C#N`, the TGI in test [1], in test [2], in test [3], in test [4], in [5] and in [6] was more than 10 µM throughout. The TGI in test [7], in test [8], in [9] and in [10] was more than 10 µM each time.

Take `CCOC(=O)N[C@H]1CCc2cc(OC)c(OC)c(OC)c2-c2ccc(SC)c(=O)cc21`: the TGI was 45.7 µM and > 100 µM in test [1]; more than 69.6 µM in [2]; more than 100 µM in test [3]; more than 100 µM in test [4]; more than 100 µM in test [5]; less than 0.01 µM in [6]. Further, the TGI in test [7] was 26.8 µM and > 100 µM; in test [8] it was more than 100 µM; in test [9], 91.7 µM and > 100 µM. The GI50 in test [5] was 0.0677 µM; in [7], less than 0.01 µM; in test [8], less than 0.01 µM; in test [9], less than 0.01 µM; in [10] it was less than 0.01 µM.

In the case of `O=C(/C(=C/c1ccc(Cl)cc1)c1ccccc1)c1ccccc1`, the TGI in test [1] is 56.4 µM; in test [2], 31.2 µM; in [3], 49.1 µM; in test [4], more than 100 µM; in test [5], 66.9 µM; in test [6] it was 31.3 µM. For the same molecule, the TGI was 71.7 µM in [7], 31.7 µM in test [8] and 69.4 µM in test [10].

For the molecule `COc1ccc(-c2ccc(=O)oc2C#Cc2cc(OC)c(OC)c(OC)c2)cc1O`, the GI50 in test [1] is 1.18 µM; in test [2], 0.265 µM; in test [4], 0.129 µM; in test [5] it was 1.3 µM; in test [6], 0.254 µM; in test [7], 0.318 µM. Also, the GI50 was 0.665 µM in test [8], 0.612 µM in test [9] and 0.167 µM in [10]. Besides, the TGI was more than 100 µM in test [1]; more than 100 µM in [2]; more than 100 µM in [4]; more than 100 µM in [5]; 1.16 µM in test [6]; 5.65 µM in [7]. Moreover, the values for the TGI in [8], in [9] and in test [10] were more than 100 µM, more than 100 µM and 2.92 µM, respectively.

For the molecule `COc1ccc2c(c1OCC(=O)O)C(=O)C(CCC(=O)O)CC2` (stereo not drawn), the TGI in [1], in test [2], in [3], in [5], in test [6] and in test [7] was more than 100 µM throughout. The TGI in [8], in test [9] and in test [10] was more than 100 µM in each case.
